Earlier results on one molecule are cited in patent US20140106026A1, “ARTICLE AND METHOD FOR TREATING, PREVENTING AND AMELIORATING ALCOHOL-INDUCED WERNICKE-KORSAKOFF SYNDROME” (priority 2012, published 2014).

Assay in data set [1]: not given
This is another data set of the same source.

Assay in data set [2]: not given
This is another data set of the same source.

For data set [3] the following is noted: oral intake.

Read-outs that look alike come from different tables or passages of the source.

In the case of `Cc1ncc(C[n+]2csc(CCO)c2C)c(N)n1` [Thiamine], the solubility entry by setting is: (in acetone, ether, chloroform, and benzene) “practically insoluble”; (in water, methanol, and glycerol) “soluble”. Besides, the stability entry in data set [1] (at acidic pH) is recorded as “stable”; in data set [1] (in alkaline solutions), “unstable”. Moreover, the stability towards sulfite entry in data set [1] (sulfite as contained in wine and cordials) is given as “degrades”. In data set [2], the “half-life, in vivo” value is “approximately two”. Moreover, the “intake above which decline in thiamine absorption occurs” value in data set [3] is recorded as “above 5 mg”.
